Active and inactive are the calls of the source. The calls are words filed in the database; no cut-off is given here.
Tests used:
[1] = Absorption maximum of the compound in THF; format: physicochemical
[2] = Fluorescence property of compound in acetone assessed as quantum yield; format: physicochemical
[3] = Induction of singlet oxygen generation in THF assessed as singlet oxygen quantum yield; format: functional
[4] = Dark toxicity against human SK-MEL-28 cells assessed as reduction in cell viability incubated for 24 hrs by neutral red uptake assay; format: cell-based; conditions: read-out: TC50
[5] = Fluorescence property of compound in THF assessed as life time; format: physicochemical
[6] = Absorption property of the compound in THF assessed as extinction coefficient; format: physicochemical
[7] = Induction of singlet oxygen generation in EtOH assessed as singlet oxygen quantum yield; format: functional
[8] = Phototoxicity against human SK-MEL-28 cells assessed as reduction in cell viability preincubated for 12 hrs followed by 15 mins of light irradiation and measured after 24 hrs by neutral red uptake assay; format: functional, cell-based; conditions: SK-MEL-28, light or radiation study
[9] = n-Octanol/PBS partition coefficient, logP of the compound at pH 7.4 at 100 uM after 5 mins; format: physicochemical
[10] = Absorption maximum of the compound in EtOH; format: physicochemical
[11] = Fluorescence property of compound in THF assessed as quantum yield; format: physicochemical
[12] = Phototoxicity against human HeLa cells assessed as reduction in cell viability preincubated for 12 hrs followed by 15 mins of light irradiation and measured after 24 hrs by neutral red uptake assay; format: functional, cell-based; conditions: light or radiation study
[13] = Dark toxicity against human HeLa cells assessed as reduction in cell viability incubated for 24 hrs by neutral red uptake assay; format: cell-based; conditions: read-out: TC50
[14] = Emission maximum of the compound in THF; format: physicochemical
[15] = Fluorescence property of compound in EtOH assessed as quantum yield; format: physicochemical
[16] = Selectivity index, ratio of TC50 for human HeLa cells to EC50 for human HeLa cells
HeLa [17] = assay: Potency index, ratio of PpXI EC50 to test compound EC50 for phototoxicity against human HeLa cells; format: functional
SK-MEL-28 = assay: Induction of apoptosis in human SK-MEL-28 cells at EC50 concentration preincubated for 12 hrs followed by 15 mins light irradiation and measured every 15 mins for 48 hrs by real time-glo Annexin V assay; format: functional, cell-based; conditions: time 3615.0 min
[18] = Selectivity index, ratio of TC50 for human SK-MEL-28 cells to EC50 for human SK-MEL-28 cells
[19] = Drug localization in endo-lysosome of human HeLa cells at 1 uM after 12 hrs by confocal microscopy analysis; format: ADME, subcellular
[20] = Drug localization in endo-lysosome of human SK-MEL-28 cells at 1 uM after 12 hrs by confocal microscopy analysis; format: ADME, subcellular; conditions: sk-mel-28, 12 h
HeLa [21] = assay: Potency index, ratio of S3AlOHPc EC50 to test compound EC50 for phototoxicity against human HeLa cells; format: functional
[22] = Drug uptake in human SK-MEL-28 cells assessed per mg protein measured upto 12 hrs by spectrofluorometric method; format: ADME, cell-based; conditions: sk-mel-28, 12 h
[23] = Drug uptake in human HeLa cells assessed per mg protein measured upto 12 hrs by spectrofluorometric method; format: ADME, cell-based
HeLa [24] = assay: Potency index, ratio of temo-porfin EC50 to test compound EC50 for phototoxicity against human HeLa cells; format: functional
[25] = Drug localization in adiposome of human HeLa cells at 1 uM after 12 hrs by confocal microscopy analysis; format: ADME, subcellular
[26] = Drug localization in adiposome of human SK-MEL-28 cells at 1 uM after 12 hrs by confocal microscopy analysis; format: ADME, subcellular; conditions: sk-mel-28, 12 h

SMILES: c1ccc(O[B-]23n4c5c6ccccc6c4N=c4c6ccccc6c(n42)=NC2=[N+]3C(=N5)c3ccccc32)cc1 (configuration not stated)
- Activity [1]: 563 nm
- Activity [2]: 0.18

SMILES: COC(=O)[C@@H](N)Cc1ccc(O[B-]23n4c5c6ccc(I)cc6c4N=c4c6ccc(I)cc6c(n42)=NC2=[N+]3C(=N5)c3ccc(I)cc32)cc1 (some centres not stated)
- Activity [3]: 0.49
- Activity [1]: 568 nm
- CC50 at 24 h [4]: > 100 µM
- Activity [5]: 0.34 nanoseconds
- Activity [6]: 37460 M⁻¹ cm⁻¹
- Activity [7]: 0.29
- EC50 [8]: > 100 µM
- logD at 5 min, 100 µM [9]: 1.79
- Activity [10]: 569 nm
- Activity [11]: 0.01
- EC50 [12]: > 100 µM
- CC50 at 24 h [13]: > 100 µM
- Activity [14]: 578 nm
- Activity [15]: 0.01

SMILES: CCSc1ccc2c(c1)C1=Nc3c4ccc(SCC)cc4c4n3[B-]3(OCc5ccc6c(c5)OCCOCCOCCOCCOCCO6)n5c(c6cc(SCC)ccc6c5=N4)=NC2=[N+]13 (configuration not stated)
- Activity [3]: 0.57
- Activity [1]: 578 nm
- Selectivity Index [16]: 1193
- Ratio EC50 (HeLa [17]): 182
- Activity (SK-MEL-28): Active
- Selectivity Index [18]: 6300
- CC50 at 24 h [4]: 14.5 µM
- Activity [5]: 1.77 nanoseconds
- Activity [6]: 92080 M⁻¹ cm⁻¹
- Drug uptake [19]: Active
- Activity [7]: 0.72
- EC50 [8]: 0.0023 µM
- Drug uptake [20]: Active
- logD at 5 min, 100 µM [9]: 1.92
- Activity [10]: 583 nm
- Ratio EC50 (HeLa [21]): 470
- Drug uptake [22]: 2.66 nmol/mg
- Activity [11]: 0.21
- Drug uptake [23]: 9.69 nmol/mg
- Ratio EC50 (HeLa [24]): 10
- EC50 [12]: 0.0044 µM
- CC50 at 24 h [13]: 5.25 µM
- Activity [14]: 594 nm
- Activity [15]: 0.2

SMILES: CCSc1ccc2c(c1)C1=Nc3c4ccc(SCC)cc4c4n3[B-]3(Oc5ccc(C[C@H](NC(=O)OC(C)(C)C)C(=O)OC)cc5)n5c(c6cc(SCC)ccc6c5=N4)=NC2=[N+]13 (some centres not stated)
- Drug uptake [25]: Active
- Activity [3]: 0.64
- Activity [1]: 581 nm
- Selectivity Index [16]: >22
- Drug uptake [26]: Active
- Activity (SK-MEL-28): Active
- Selectivity Index [18]: >21
- CC50 at 24 h [4]: > 100 µM
- Activity [5]: 1.69 nanoseconds
- Activity [6]: 97450 M⁻¹ cm⁻¹
- Activity [7]: 0.7
- EC50 [8]: 4.77 µM
- logD at 5 min, 100 µM [9]: 2.63
- Activity [10]: 582 nm
- Drug uptake [22]: 0.033 nmol/mg
- Activity [11]: 0.19
- Drug uptake [23]: 0.121 nmol/mg
- EC50 [12]: 4.45 µM
- CC50 at 24 h [13]: > 100 µM
- Activity [14]: 596 nm
- Activity [15]: 0.2

SMILES: Cl[B-]12n3c4c5ccc(I)cc5c3N=c3c5ccc(I)cc5c(n31)=NC1=[N+]2C(=N4)c2ccc(I)cc21 (configuration not stated)
- Activity [3]: 0.7
- Activity [1]: 572 nm
- Activity [5]: 0.3 nanoseconds
- Activity [6]: 65160 M⁻¹ cm⁻¹
- Activity [7]: 0.77
- Activity [10]: 569 nm
- Activity [11]: 0.03
- Activity [14]: 581 nm
- Activity [15]: 0.03

SMILES: Ic1ccc2c(c1)C1=[N+]3C2=Nc2c4ccc(I)cc4c4n2[B@-]3(OCc2ccc3c(c2)OCCOCCOCCOCCOCCO3)n2c(c3cc(I)ccc3c2=N4)=N1
- Drug uptake [25]: Active
- Activity [3]: 0.57
- Activity [1]: 568 nm
- Selectivity Index [16]: 356
- Drug uptake [26]: Active
- Activity (SK-MEL-28): Active
- Selectivity Index [18]: 1891
- CC50 at 24 h [4]: 71.8 µM
- Activity [5]: 0.35 nanoseconds
- Activity [6]: 80750 M⁻¹ cm⁻¹
- Activity [7]: 0.59
- EC50 [8]: 0.038 µM
- Activity [10]: 569 nm
- Drug uptake [22]: 0.005 nmol/mg
- Activity [11]: 0.022
- Drug uptake [23]: 0.33 nmol/mg
- EC50 [12]: 0.066 µM
- CC50 at 24 h [13]: 23.5 µM
- Activity [14]: 578 nm
- Activity [15]: 0.022

SMILES: Fc1c(F)c(F)c2c(c1F)C1=Nc3c4c(F)c(F)c(F)c(F)c4c4n3[B-]3(OCc5ccc6c(c5)OCCOCCOCCOCCOCCO6)n5c(c6c(F)c(F)c(F)c(F)c6c5=N4)=NC2=[N+]13 (configuration not stated)
- Activity [3]: 0.086
- Activity [1]: 568 nm
- Selectivity Index [16]: 1.06
- Selectivity Index [18]: 1.16
- CC50 at 24 h [4]: 18.9 µM
- Activity [6]: 81000 M⁻¹ cm⁻¹
- Activity [7]: 0.056
- EC50 [8]: 16.3 µM
- Activity [10]: 567 nm
- Activity [11]: 0.014
- EC50 [12]: 6.4 µM
- CC50 at 24 h [13]: 6.78 µM
- Activity [14]: 579 nm
- Activity [15]: 0.014

SMILES: CCSc1ccc2c(c1)C1=Nc3c4ccc(SCC)cc4c4n3[B@-]3(Oc5ccc(C[C@H](N)C(=O)OC)cc5)n5c(c6cc(SCC)ccc6c5=N4)=NC2=[N+]13
- Drug uptake [25]: Active
- Activity [3]: 0.49
- Activity [1]: 579 nm
- Selectivity Index [16]: 573
- Drug uptake [26]: Active
- Activity (SK-MEL-28): Active
- Selectivity Index [18]: >455
- CC50 at 24 h [4]: > 100 µM
- Activity [5]: 1.71 nanoseconds
- Activity [6]: 66510 M⁻¹ cm⁻¹
- Activity [7]: 0.5
- EC50 [8]: 0.22 µM
- logD at 5 min, 100 µM [9]: 1.93
- Activity [10]: 583 nm
- Drug uptake [22]: 0.367 nmol/mg
- Activity [11]: 0.17
- Drug uptake [23]: 0.622 nmol/mg
- EC50 [12]: 0.12 µM
- CC50 at 24 h [13]: 68.8 µM
- Activity [14]: 594 nm
- Activity [15]: 0.16

SMILES: COC(=O)[C@H](Cc1ccc(O[B-]23n4c5c6c(F)c(F)c(F)c(F)c6c4N=c4c6c(F)c(F)c(F)c(F)c6c(n42)=NC2=[N+]3C(=N5)c3c(F)c(F)c(F)c(F)c32)cc1)NC(=O)OC(C)(C)C (some centres not stated)
- Activity [3]: 0.19
- Activity [1]: 568 nm
- Selectivity Index [16]: 1.03
- Selectivity Index [18]: >1.51
- CC50 at 24 h [4]: > 100 µM
- Activity [6]: 27790 M⁻¹ cm⁻¹
- Activity [7]: 0.19
- EC50 [8]: 66.2 µM
- Activity [10]: 567 nm
- Activity [11]: 0.09
- EC50 [12]: 64 µM
- CC50 at 24 h [13]: 65.7 µM
- Activity [14]: 578 nm
- Activity [15]: 0.09

SMILES: COC(=O)[C@H](Cc1ccc(O[B@@-]23n4c5c6ccc(I)cc6c4N=c4c6ccc(I)cc6c(n42)=NC2=[N+]3C(=N5)c3ccc(I)cc32)cc1)NC(=O)OC(C)(C)C
- Drug uptake [25]: Active
- Activity [3]: 0.64
- Activity [1]: 569 nm
- Selectivity Index [16]: >4
- Drug uptake [26]: Active
- Selectivity Index [18]: >4
- CC50 at 24 h [4]: > 50 µM
- Activity [5]: 0.3 nanoseconds
- Activity [6]: 106120 M⁻¹ cm⁻¹
- Activity [7]: 0.86
- EC50 [8]: 11.8 µM
- logD at 5 min, 100 µM [9]: 2.22
- Activity [10]: 568 nm
- Activity [11]: 0.03
- EC50 [12]: 12.2 µM
- CC50 at 24 h [13]: > 50 µM
- Activity [14]: 577 nm
- Activity [15]: 0.03

Source: ChEMBL document CHEMBL5053548, “Subphthalocyanines as Efficient Photosensitizers with Nanomolar Photodynamic Activity against Cancer Cells” (J Med Chem, 2021)
